Assay results as given in patent US11766441B2, “Oral liquid compositions including chlorpromazine” (GENUS LIFESCIENCES INC., priority 2020, dated 2023).

Tests used:
[1] = pH range of 1 to 12 at ambient temperature; cited from earlier work
[2] = Drug-excipient compatibility: HPLC assay and impurities of 20 mg/ml API/excipient solutions in purified water after storage; assay type: physicochemical
Experimental: Common excipients functioning as a solvent, a sweetener, an antioxidant, a chelating agent, a buffer system component, and a preservative were evaluated in the following example for excipient and drug substance compatibility. Compatibility was assessed through high performance liquid chromatography (HPLC) analysis of solutions containing the mixtures of the drug substance and the individual evaluated excipient in purified water. A relatively low concentration (20 mg/ml) of active pharmaceutical ingredient was selected to enhance potential oxidative or hydrolytic degradation of the API in the presence of the excipients. The excipients were used in slight excess to enhance potential interactions. The proportion of excipients was selected such that it was representative of their respective proportions to the API in the finished product.
Additionally, the pH of the solution was also monitored during development to ensure the physical stability of the product.

[3] = after storage for 1 Month at 25° C./60% RH
[4] = after storage for 1 Month at 40° C./75% RH
[5] = after storage for 15 days at 60° C.

## CN(C)CCCN1c2ccccc2Sc2ccc(Cl)cc21.Cl [Chlorpromazine hydrochloride, 2-chloro-10-[3-(dimethylamino)propyl] phenothiazine hydrochloride]
[1]
  solubility: greater than 1 g/mL
[2]; 1 M, 25° C./60% RH
  Assay of Chlorpromazine Hydrochloride (% Label Claim): 98.6 % Label Claim
[2]; 1 M, 40° C./75% RH
  Assay of Chlorpromazine Hydrochloride (% Label Claim): 98.7 % Label Claim
[2]; 15 Days, 60° C.
  Assay of Chlorpromazine Hydrochloride (% Label Claim): 100.9 % Label Claim
[2]; T0
  Assay of Chlorpromazine Hydrochloride (% Label Claim): 98.3 % Label Claim
[2]; [3]
  Impurities (%) A: 0.07%
  Impurities (%) C: 0.07%
  Impurities (%) D: 0.03%
  Impurities (%) Total: 0.24%
  Impurities (%) UD (RRT 0.55): 0.02%
  Impurities (%) UD (RRT 0.61): 0.02%
  Impurities (%) UD (RRT 1.42): 0.03%
[2]; [4]
  Impurities (%) A: 0.21%
  Impurities (%) C: 0.07%
  Impurities (%) D: 0.08%
  Impurities (%) Total: 0.44%
  Impurities (%) UD (RRT 0.55): 0.02%
  Impurities (%) UD (RRT 0.61): 0.02%
  Impurities (%) UD (RRT 1.42): 0.03%
[2]; [5]
  Impurities (%) A: 0.55%
  Impurities (%) C: 0.08%
  Impurities (%) D: 0.18%
  Impurities (%) E: 0.02%
  Impurities (%) Total: 1.04%
  Impurities (%) UD (RRT 0.49): 0.02%
  Impurities (%) UD (RRT 0.55): 0.14%
  Impurities (%) UD (RRT 0.61): 0.03%
  Impurities (%) UD (RRT 1.42): 0.03%
[2]; time zero
  Impurities (%) Total: 0.11%
  Impurities (%) UD (RRT 0.82): 0.08%
  Impurities (%) UD (RRT 1.31): 0.03%
